Source: PubChem BioAssay (NCI)
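Each compound was tested at five concentrations against cells in 96-well plates for 48 hours. TGI: total growth inhibition.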

Experiments:
Assay in all cases: DTP human tumour cell line panel, 48 h
SF-295 CNS = system: SF-295 CNS
T-47D breast = system: T-47D breast
OVCAR-4 ovarian = system: OVCAR-4 ovarian
HCC-2998 colon = system: HCC-2998 colon
MCF7 breast = system: MCF7 breast
LOX IMVI melanoma = system: LOX IMVI melanoma
UACC-257 melanoma = system: UACC-257 melanoma
MDA-MB-231 breast = system: MDA-MB-231 breast
CCRF-CEM leukemia = system: CCRF-CEM leukemia
HOP-62 NSCLC = system: HOP-62 NSCLC
U251 CNS = system: U251 CNS

| Compound | TGI (SF-295 CNS) [µM] | TGI (T-47D breast) [µM] | TGI (OVCAR-4 ovarian) [µM] | TGI (HCC-2998 colon) [µM] | TGI (MCF7 breast) [µM] | TGI (LOX IMVI melanoma) [µM] | TGI (UACC-257 melanoma) [µM] | TGI (MDA-MB-231 breast) [µM] | TGI (CCRF-CEM leukemia) [µM] | TGI (HOP-62 NSCLC) [µM] | TGI (U251 CNS) [µM] |
| --- | --- | --- | --- | --- | --- | --- | --- | --- | --- | --- | --- |
| N#Cc1nc(-c2ccco2)oc1N | > 10 | > 10 | > 10 | > 10 | > 10 | > 10 | > 10 | > 10 | > 10 | > 10 |  |
| O=c1c2cc(S(=O)(=O)O)ccc2nc(COc2ccc(Oc3ccc(Cl)cc3Cl)cc2)n1-c1ccc(Oc2ccc(Cl)cc2)cc1Cl | 35.5 | > 100 | 73.6 |  | 40.6 | 30.2 | 57.4 |  | > 100 | 46 | 30.1 |
| CCOC(=O)N1N=C(/C(C)=N/OC)C(C)S1=O (centres undefined) | > 100 | > 100 | > 100 | > 100 | > 100 |  | > 100 | > 100 | > 100 | > 100 | > 100 |
| CCN(CC)c1ccc2c(c1)Oc1ccc(N(CC)CC)cc1C21Oc2ccccc2-c2c1c1ccccc1n2CC (centres undefined) | > 100 |  | > 100 | > 100 |  | > 100 | > 100 |  | > 100 |  | > 100 |
| C/C(=C\CBr)CCC(Br)C(C)(C)Cl (centres undefined) | > 100 |  | > 100 |  |  | > 100 | > 100 |  |  | > 100 | > 100 |
| C[C@]12C[C@@H](OC(=O)[C@]1(C)O)[C@@H]([C@]1(O)CC[C@H]3[C@@H]4C[C@H]5O[C@]56C[C@H]5O[C@H]5C(=O)[C@]6(C)[C@H]4CC[C@@]31C)C2 | > 50 | > 50 | > 50 | > 50 | > 50 |  | > 50 | > 50 | > 50 | > 50 | > 50 |
| Clc1cc(Cl)cc(N=C/C=C/Nc2cc(Cl)cc(Cl)c2)c1 | 51.4 | > 100 | 32.7 | 33.4 | 27.2 |  | > 100 | 30.2 | 60.9 | 51.8 | 33.5 |
| CN(C)C(=NCc1ccccc1)NC#N | > 100 |  | > 100 | > 100 |  | > 100 | > 100 |  |  | > 100 | > 100 |
| Oc1ccc2cc(Br)ccc2c1-c1c(O)ccc2ccc(Br)cc12 | 30.6 | 25.3 |  | 19.5 | 28.8 |  | 33.9 | 21.6 | 28.3 | 28.5 | 28 |
| O=[N+]([O-])c1ccc(-c2nc3ccc(Cl)cc3[nH]2)cc1 | > 100 | > 100 | > 100 |  | > 100 | > 100 | > 100 | > 100 |  | > 100 |  |
| CCOC(=O)/C(C#N)=C(O)/C(=C\c1ccc(Br)cc1)NC(=O)c1ccccc1 | > 100 |  | > 100 | > 100 |  |  | > 100 |  | > 100 | > 100 | > 100 |
| O=C(c1ccccc1)N(C(=O)c1ccccc1)c1nc(SCc2ccccc2)ns1 | 79.1 | > 100 | > 100 | 49.9 | > 100 | 60.4 | 60.5 |  | 65.3 | 87.1 | 37.8 |
| COc1ccc(/C=N/n2c(C)n[nH]c2=O)c(OC)c1 | > 100 | > 100 | > 100 | > 100 | > 100 |  | > 100 | > 100 | > 100 | > 100 | > 100 |
| CC1(C)OCC([C@H]2O[C@@H](CC(=S)NCCCCCCCCCCCCNC(=S)C[C@H]3O[C@@H](C4COC(C)(C)O4)[C@H]4OC(C)(C)O[C@H]43)[C@H]3OC(C)(C)O[C@H]32)O1 (some centres undefined) | > 100 | > 100 | > 100 | > 100 | > 100 | > 100 | > 100 | > 100 |  | > 100 | > 100 |
| Cc1nc2ccc(C(F)(F)F)cc2nc1NCc1ccc(Cl)c(Cl)c1 | 32.2 | 9 |  | 22.3 | 22.6 | 29.6 | 30.1 | 29.4 | 36.6 | 27.5 | 30.6 |
| CCOC(=O)CNC(=O)C(CSC(=O)N(O)c1ccc(Cl)cc1)NC(=O)CCC(N)C(=O)OCC (centres undefined) | > 50 | > 50 |  | > 50 | > 50 | > 50 | > 50 | > 50 | > 50 | > 50 | > 50 |
| COc1ccc(OC)c(CNc2ccc(C(=O)O)cc2)c1 |  |  | > 100 | > 100 | > 100 | > 100 | > 100 | > 100 | > 100 |  | > 100 |
| O=C1Cc2c([nH]c3ccc(Br)cc23)-c2cc(O)c(O)cc2N1 | > 100 | > 100 | > 100 | > 100 | > 100 | > 100 | > 100 | > 100 |  | > 100 | > 100 |
| O=c1[nH]c(=S)nc2nc3c4ccc[nH]c4c4ccccc4c3nc12 | > 100 |  | > 100 | > 100 | > 100 |  | > 100 |  | > 100 | > 100 | > 100 |
| CCOP1(=O)C=C(C)C(Cl)=C(C)C1 (centres undefined) | > 100 |  | 90.9 | > 100 |  | 50.4 | 88.7 |  | 59.2 | > 100 | 63.2 |
| CC(=O)C1=CN=C2C(=O)N(c3ccccc3)N(C)C12C (centres undefined) | > 100 |  | > 100 | > 100 | > 100 | > 100 | > 100 | > 100 | > 100 |  | > 100 |
| COC(=O)[C@@]1(C(C)CC(=O)O)CCCCC1=O (some centres undefined) | > 100 |  | > 100 | > 100 |  | > 100 | > 100 |  | > 100 | > 100 | > 100 |
| CCCCc1ccc(-n2sc3ncc(C)cc3c2=O)cc1 | > 100 | 63.1 | > 100 | > 100 | 34.3 | 72.3 |  | 44.5 | 50.5 | > 100 | > 100 |
